The text below walks through data of patent publication US8158577B2, “Modulation of cartilage homeostasis by active domains of cell binding extracellular matrix molecules” (priority 2004, dated 2012).

Experiment [1] concerns K105 cells. Put plainly: Adhesion of K105 cells to chondroadherin in the presence of synthetic peptide (FIG. 3, 5A-5B, 13). It counts as cell-based, human. Conditions: peptide 250 μg/ml. How it is done:
Human cells (K9) originating from a human chondrosarcoma were a kind gift from Drs. Sven Inerot and Anders Lindahl, The Salgrenska University Hospital Gothenburg, Sweden. The K9 cells were cultured in Dulbeccos Modified Eagle Medium: Nutrient Mixture F12 (DMEM/F12 1:1) with GLUTAMAX I, supplemented with 10% fetal calf serum, 25 μg/ml ascorbic acid, 50 IU of penicillin and 50 μg/ml streptomycin (Life Technologies, Inc.). A different human cells line (K105) originating from a human chondrosarcoma was a kind gift from Dr. Sven Inerot, The Salgrenska University Hospital, Gothenburg, Sweden. The K105 cells were cultured in a mix of 40% Dulbeccos Modified Eagle Medium, 40% Minimum Essential Media (MEM) alpha Medium, 10% Nutrient Mixture F1 supplemented with 100 nM hydrocortisone, 100 ng/ml insulin, 10% fetal calf serum, 25 μg/ml ascorbic acid, 50 IU of penicillin and 50 μg/ml streptomycin (Life Technologies, Inc.). To harvest cells, culture dishes were rinsed three times with Ca^2+/Mg^2+-free PBS and the cells were incubated with 0.5% trypsin and 1 mM EDTA for 5 min. Detached cells were suspended in PBS containing 1 mg/ml trypsin inhibitor (Sigma) and then washed in PBS. To remove membrane-bound collagens the cells were treated with collagenase 100 U/ml (CLSPA; Worthington Biochemical Corp., Lakewood, N.J.) in PBS, 30 min. 37° C. and then washed in PBS.
(§1) Tissue culture 48-wells dishes (Nunclon, Nunc, Denmark) were coated overnight with 5 μg/ml chondroadherin in 4M Guanidine-HCl, 50 mM sodium acetate, pH 5.8, or for native protein in PBS. Alternatively coating was with 5 μg/ml collagen type II in PBS followed by after-coating with 0.5% BSA in PBS for 3 hours. Collagen type II was isolated from bovine nasal cartilage by pepsin digestion (11). Bacterially expressed chondroadherin was isolated as described above. Recombinant chondroadherin expressed in EBNA cell was cloned and purified as described elsewhere (8).
To test cell binding, the chondrosarcoma cells or bovine chondrocytes were suspended in PBS containing 0.1% BSA, 25 U/ml collagenase and added to the wells (50,000/well), in the absence or presence of various peptide pools or the synthetic peptides (200, 100, 50, 25, 12.5 μg/ml). Non-adherent cells were removed after 1 hour and adhesion was determined by measuring lysosomal N-acetylglucosaminidase (12). Adhesion and spreading was visualized by light microscopy. In the time studies, k105 cells were allowed to adhere for 30 minutes, unbound cells were removed and medium without serum supplemented with or without peptides (250 μg/ml), β1 integrin antibody (clone P4C10, Gibco BRL), EDTA (5 mM) was added. Cell morphology was visualized by light microscopy after 1, 3 and 20 hours.
Study design: Tissue culture dishes (48-wells) were coated with 5 μg/ml chondroadherin expressed in E. coli and blocked for non-specific binding with BSA. […] were suspended in PBS containing 0.1% BSA, 25 U/ml collagenase and added to the wells (50,000/well) in the presence of synthetic peptide to be tested and allowed to adhere for 1 hour at 37° C. Nonadherent cells were removed by washing, and adhesion was determined by analyzing lysosomal hexosaminidase.
A 12-mer peptide (1947.01) plus an N-terminal cysteine (CQLRGLRRWLEAK) (SEQ ID NO. 3) representing the candidate sequence identified by mass spectrometry were synthesized and its ability to inhibit cell adhesion was determined. Tissue culture dishes were coated with 5 μg/ml chondroadherin expressed in E. coli and blocked for non-specific binding with BSA. The cells were suspended in PBS containing 0.1% BSA, 25 U/ml collagenase and added to the wells (50,000/well) in the presence of synthetic peptide (200, 100, 50, 25, 12.5 μg/ml) and allowed to adhere for 1 hour at 37° C. Nonadherent cells were removed by washing, and adhesion was determined by analyzing lysosomal hexosaminidase. […]

Experiment [2] concerns K105 cells. The experiment can be described thus: Adhesion of K105 cells to collagen type II in the presence of synthetic peptide (FIG. 5C-5D). Format: cell-based, human. Conditions: peptide 250 μg/ml, 1 hour at 37° C. How it is done: as §1
(§2) To test cell binding, the chondrosarcoma cells or bovine chondrocytes were suspended in PBS containing 0.1% BSA, 25 U/ml collagenase and added to the wells (50,000/well), in the absence or presence of various peptide pools or the synthetic peptides (200, 100, 50, 25, 12.5 μg/ml). Non-adherent cells were removed after 1 hour and adhesion was determined by measuring lysosomal N-acetylglucosaminidase (12). Adhesion and spreading was visualized by light microscopy. […]
Tissue culture dishes were coated with 5 μg/ml chondroadherin expressed in E. coli or collagen type II and blocked for non-specific binding with BSA. […] Spreading was visualized by light microscopy, and adhesion was determined by analyzing lysosomal hexosaminidase. Adhesion is expressed as number of cells where the data represent the average of two wells. […]

The subject of another experiment is bovine chondrocytes. Put plainly: Adhesion of bovine chondrocytes to human chondroadherin with or without cell binding peptides (FIG. 6). Format: cell-based. The settings on record: peptide 250 μg/ml, 1 hour at 37° C., 100,000 cells/well. As for the experimental part: Bovine chondrocytes were isolated by collagenase (CLS1; Worthington Biochemical Corp., Lakewood, N.J.) digestion of articular cartilage from 4-6 month old calves as described (10). Briefly, cartilage slices were digested for 16 hours with collagenase in EBSS (Earle's balanced salt solution, GIBCO BRL Gaithersburg, Md.). The cells were filtered through a 100 μm nylon filter, washed three times in PBS containing 0.2% BSA (SERVA).
as §2
Tissue culture dishes were coated with 5 μg/ml chondroadherin expressed in E. coli or collagen type II and blocked for non-specific binding with BSA. […] Adhesion was determined by analyzing lysosomal hexosaminidase. Adhesion is expressed as number of cells, 100,000 cells/well was seeded. […]

Experiment [3] concerns K105 cells. Put plainly: Adhesion of K105 cells to the coated cell binding peptides (FIG. 8). Format: cell-based, human. As for the experimental part:
Tissue culture dishes were coated with 33 μg/ml (20 µM) peptide solution. The cells (50,000/well) were suspended in PBS containing 0.1% BSA, 25 U/ml collagenase and added to the wells in the presence or absence of synthetic peptide (250 μg/ml) and allowed to adhere for 1 hour at 37° C. Nonadherent cells were removed by washing. Spreading was visualized by light microscopy.

For the substance H-CKFPTKRSKKAGRH-OH [SEQ ID No. 7], the “k105 cell adhesion to chondroadherin in the presence of peptide” value in the experiment on K105 cells [1] (1 hour at 37° C.) is reported as “increased”. Further, the “k105 cell spreading on chondroadherin in the presence of peptide” value with K105 cells [1] (1 hour, light microscopy) was “increased”. Besides, the “k105 cell adhesion to collagen type II in the presence of peptide” value with K105 cells [2] is “not significantly affected”. The “bovine chondrocyte adhesion to chondroadherin in the presence of peptide” value in the experiment on bovine chondrocytes was “increased”. Besides, the “adhesion and shape of k105 cells plated on the peptide” value with K105 cells [3] (dishes coated with 33 μg/ml peptide, 1 hour at 37° C.) is “adhere and spread”. Moreover, the “inhibition of k105 adhesion to the coated peptide by the same peptide in solution” value in the experiment on K105 cells [3] (peptide in solution 250 μg/ml) was “unable to inhibit adhesion”.
